# Reference: PubChem BioAssay (NCI)
#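 Test compounds were applied to cells in 96-well plates for 48 hours at 5 doses. TGI marks complete inhibition of growth.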 Where a SMILES comes first, the peptide text is derived from it. The star is where a group is joined. Boc = CC(C)(C)OC(=O)*; Bn = c1ccc(C*)cc1
# Columns and labels:
# Assay in all cases: NCI-60 cell line screen, 48 h
# PC-3 prostate = tested on: PC-3 prostate
# SR leukemia = tested on: SR leukemia
# SF-295 CNS = tested on: SF-295 CNS
# HOP-62 NSCLC = tested on: HOP-62 NSCLC
# SK-MEL-5 melanoma = tested on: SK-MEL-5 melanoma
# KM12 colon = tested on: KM12 colon
# MDA-MB-231 breast = tested on: MDA-MB-231 breast
# SF-268 CNS = tested on: SF-268 CNS
# SN12C renal = tested on: SN12C renal
# MDA-MB-435 = tested on: MDA-MB-435
# IGROV1 ovarian = tested on: IGROV1 ovarian
# M14 melanoma = tested on: M14 melanoma
# HS 578T breast = tested on: HS 578T breast
# NCI-H226 lung = tested on: NCI-H226 lung
# NCI-H23 lung = tested on: NCI-H23 lung
# MOLT-4 leukemia = tested on: MOLT-4 leukemia
# 786-0 renal = tested on: 786-0 renal
# MALME-3M melanoma = tested on: MALME-3M melanoma
# LOX IMVI melanoma = tested on: LOX IMVI melanoma
# MCF7 breast = tested on: MCF7 breast
# UO-31 renal = tested on: UO-31 renal
# OVCAR-4 ovarian = tested on: OVCAR-4 ovarian
# SF-539 CNS = tested on: SF-539 CNS
# SW-620 colon = tested on: SW-620 colon
# CAKI-1 renal = tested on: CAKI-1 renal
# T-47D breast = tested on: T-47D breast
# OVCAR-3 ovarian = tested on: OVCAR-3 ovarian
# NCI-H460 lung = tested on: NCI-H460 lung
# RPMI-8226 leukemia = tested on: RPMI-8226 leukemia
# OVCAR-8 ovarian = tested on: OVCAR-8 ovarian
# SK-OV-3 ovarian = tested on: SK-OV-3 ovarian
# UACC-62 melanoma = tested on: UACC-62 melanoma
# A549 NSCLC = tested on: A549 NSCLC
# SK-MEL-28 melanoma = tested on: SK-MEL-28 melanoma
# BT-549 breast = tested on: BT-549 breast
# HL-60(TB) leukemia = tested on: HL-60(TB) leukemia
# U251 CNS = tested on: U251 CNS
# HCT-116 colon = tested on: HCT-116 colon
# MDA-N = tested on: MDA-N
# K-562 leukemia = tested on: K-562 leukemia
# ACHN renal = tested on: ACHN renal
# EKVX NSCLC = tested on: EKVX NSCLC
# SNB-19 CNS = tested on: SNB-19 CNS
# OVCAR-5 ovarian = tested on: OVCAR-5 ovarian
# RXF 393 renal = tested on: RXF 393 renal
# DU-145 prostate = tested on: DU-145 prostate
# NCI/ADR-RES ovarian = tested on: NCI/ADR-RES ovarian
# NCI-H522 lung = tested on: NCI-H522 lung
# SNB-75 CNS = tested on: SNB-75 CNS
# COLO 205 colon = tested on: COLO 205 colon
# HOP-92 NSCLC = tested on: HOP-92 NSCLC
# TK-10 renal = tested on: TK-10 renal
# HT29 colon = tested on: HT29 colon
# A498 renal = tested on: A498 renal
# HCC-2998 colon = tested on: HCC-2998 colon
# UACC-257 melanoma = tested on: UACC-257 melanoma
# SK-MEL-2 melanoma = tested on: SK-MEL-2 melanoma
# HCT-15 colon = tested on: HCT-15 colon
smiles,measurement,setting,value
COC(=O)C(CC(C)C)NC(=O)CNC(=O)C(Cc1ccc(OCc2ccccc2)cc1)NC(=O)C(COCc1ccccc1)NC(=O)OC(C)(C)C (configuration not stated) (Boc-S(Bn)Y(Bn)GL-OMe; configuration not given here),TGI,PC-3 prostate,> 100 µM
same,TGI,SR leukemia,> 100 µM
same,TGI,SF-295 CNS,> 100 µM
same,TGI,HOP-62 NSCLC,> 100 µM
same,TGI,SK-MEL-5 melanoma,> 100 µM
same,TGI,KM12 colon,> 100 µM
same,TGI,MDA-MB-231 breast,> 100 µM
same,TGI,SF-268 CNS,> 100 µM
same,TGI,SN12C renal,> 100 µM
same,TGI,MDA-MB-435,> 100 µM
same,TGI,IGROV1 ovarian,> 100 µM
same,TGI,M14 melanoma,> 100 µM
same,TGI,HS 578T breast,> 100 µM
same,TGI,NCI-H226 lung,> 100 µM
same,TGI,NCI-H23 lung,> 100 µM
same,TGI,MOLT-4 leukemia,> 100 µM
same,TGI,786-0 renal,> 100 µM
same,TGI,MALME-3M melanoma,> 100 µM
same,TGI,LOX IMVI melanoma,> 100 µM
same,TGI,MCF7 breast,> 100 µM
same,TGI,UO-31 renal,> 100 µM
same,TGI,OVCAR-4 ovarian,> 100 µM
same,TGI,SF-539 CNS,> 100 µM
same,TGI,SW-620 colon,> 100 µM
same,TGI,CAKI-1 renal,> 100 µM
same,TGI,T-47D breast,> 100 µM
same,TGI,OVCAR-3 ovarian,> 100 µM
same,TGI,NCI-H460 lung,> 100 µM
same,TGI,RPMI-8226 leukemia,> 100 µM
same,TGI,OVCAR-8 ovarian,> 100 µM
same,TGI,SK-OV-3 ovarian,> 100 µM
same,TGI,UACC-62 melanoma,> 100 µM
same,TGI,A549 NSCLC,> 100 µM
same,TGI,SK-MEL-28 melanoma,> 100 µM
same,TGI,BT-549 breast,> 100 µM
same,TGI,HL-60(TB) leukemia,39.7 µM
same,TGI,U251 CNS,> 100 µM
same,TGI,HCT-116 colon,> 100 µM
same,TGI,MDA-N,> 100 µM
same,TGI,K-562 leukemia,> 100 µM
same,TGI,ACHN renal,> 100 µM
same,TGI,EKVX NSCLC,> 100 µM
same,TGI,SNB-19 CNS,> 100 µM
same,TGI,OVCAR-5 ovarian,> 100 µM
same,TGI,RXF 393 renal,> 100 µM
same,TGI,DU-145 prostate,> 100 µM
same,TGI,NCI/ADR-RES ovarian,> 100 µM
same,TGI,NCI-H522 lung,> 100 µM
same,TGI,SNB-75 CNS,> 100 µM
same,TGI,COLO 205 colon,> 100 µM
same,TGI,HOP-92 NSCLC,> 100 µM
same,TGI,TK-10 renal,> 100 µM
same,TGI,HT29 colon,> 100 µM
COC1=CC(=O)c2c(n[nH]c2CCNC(=O)OCc2ccccc2)C1=O,TGI,PC-3 prostate,> 100 µM
same,TGI,SR leukemia,65.5 µM
same,TGI,SF-295 CNS,34.9 µM
same,TGI,HOP-62 NSCLC,37.2 µM
same,TGI,SK-MEL-5 melanoma,13 µM
same,TGI,KM12 colon,22.9 µM
same,TGI,MDA-MB-231 breast,31.3 µM
same,TGI,SN12C renal,30.1 µM
same,TGI,MDA-MB-435,4 µM
same,TGI,IGROV1 ovarian,29 µM
same,TGI,M14 melanoma,26.7 µM
same,TGI,HS 578T breast,69.1 µM
same,TGI,NCI-H23 lung,15.5 µM
same,TGI,MOLT-4 leukemia,51.4 µM
same,TGI,786-0 renal,31.3 µM
same,TGI,A498 renal,32.7 µM
same,TGI,MALME-3M melanoma,6.5 µM
same,TGI,LOX IMVI melanoma,23.7 µM
same,TGI,MCF7 breast,22.2 µM
same,TGI,UO-31 renal,28.8 µM
same,TGI,HCC-2998 colon,39.6 µM
same,TGI,SF-539 CNS,34.1 µM
same,TGI,SW-620 colon,36.8 µM
same,TGI,UACC-257 melanoma,28.3 µM
same,TGI,T-47D breast,18.3 µM
same,TGI,OVCAR-3 ovarian,32.2 µM
same,TGI,NCI-H460 lung,31.3 µM
same,TGI,SK-MEL-2 melanoma,23.7 µM
same,TGI,RPMI-8226 leukemia,39.1 µM
same,TGI,OVCAR-8 ovarian,44.3 µM
same,TGI,UACC-62 melanoma,19.9 µM
same,TGI,A549 NSCLC,40.4 µM
same,TGI,SK-MEL-28 melanoma,24.5 µM
same,TGI,BT-549 breast,32.5 µM
same,TGI,HL-60(TB) leukemia,41.9 µM
same,TGI,U251 CNS,26 µM
same,TGI,HCT-116 colon,24.9 µM
same,TGI,MDA-N,4.61 µM
same,TGI,HCT-15 colon,30.8 µM
same,TGI,K-562 leukemia,44.9 µM
same,TGI,ACHN renal,27.2 µM
same,TGI,EKVX NSCLC,32 µM
same,TGI,SNB-19 CNS,39.8 µM
same,TGI,OVCAR-5 ovarian,32.1 µM
same,TGI,NCI/ADR-RES ovarian,> 100 µM
same,TGI,NCI-H522 lung,21.1 µM
same,TGI,COLO 205 colon,33.9 µM
same,TGI,TK-10 renal,70.6 µM
same,TGI,HT29 colon,40.8 µM
